Patent US8912227B1, “Bicyclic pyrrole derivatives useful as agonists of GPR120” (Janssen Pharmaceutica NV, priority 2014, dated 2014)

Assays:
Human GPR120 short form = biological target: T1, Human GPR120 short form (Homo sapiens, UniProt Q5NUL3); assay: Human GPR120 calcium flux assay, Procedure Calcium B; assay type: cell-based; conditions: HEK-293 cells expressing human GPR120 short form, 4200 cells/well, FLIPR
T1 construct: expressed in transfected cells
T1 sequence (Q5NUL3 1-361): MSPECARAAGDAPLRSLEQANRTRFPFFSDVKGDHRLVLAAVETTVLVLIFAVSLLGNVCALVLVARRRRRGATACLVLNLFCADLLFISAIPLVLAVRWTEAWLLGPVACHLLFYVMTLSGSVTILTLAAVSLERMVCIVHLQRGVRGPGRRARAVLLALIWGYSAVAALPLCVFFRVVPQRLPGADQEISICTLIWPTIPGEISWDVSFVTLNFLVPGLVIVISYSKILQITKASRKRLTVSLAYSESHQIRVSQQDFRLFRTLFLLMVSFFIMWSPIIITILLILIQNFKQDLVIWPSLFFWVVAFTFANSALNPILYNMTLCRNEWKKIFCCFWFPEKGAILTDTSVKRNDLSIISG

[1] = biological target: T2, short form of the GPR120 receptor (Homo sapiens, UniProt Q5NUL3); assay: Human GPR120 DiscoveRx PathHunter β-Arrestin assay, Procedure β-arrestin B; assay type: cell-based; conditions: PathHunter CHO-K1 GPR120S β-Arrestin cell line, 5000 cells/well
T2 construct: host or cells: PathHunter CHO-K1 GPR120S β-Arrestin Cell Line
T2 sequence (P32121 whole entry partner, one chain of several): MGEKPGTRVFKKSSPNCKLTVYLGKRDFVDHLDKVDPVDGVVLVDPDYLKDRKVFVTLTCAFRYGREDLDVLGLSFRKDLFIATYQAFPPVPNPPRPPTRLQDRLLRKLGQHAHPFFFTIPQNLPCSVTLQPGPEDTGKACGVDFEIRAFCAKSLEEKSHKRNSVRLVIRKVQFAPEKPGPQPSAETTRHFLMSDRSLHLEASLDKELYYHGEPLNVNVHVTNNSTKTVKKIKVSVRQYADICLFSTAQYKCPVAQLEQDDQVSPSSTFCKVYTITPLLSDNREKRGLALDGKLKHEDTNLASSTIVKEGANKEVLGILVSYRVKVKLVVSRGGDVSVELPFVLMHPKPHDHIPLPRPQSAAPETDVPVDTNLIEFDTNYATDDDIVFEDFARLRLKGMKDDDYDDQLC
Source text: The binding of an agonist (medium/long chain fatty acids or small molecule agonists) to the G-protein-coupled receptor GPR120 activates phospholipase C, leading to release of intracellular Ca^+2 through the generation of inositol 1,4,5-trisphosphate (InsP3 or IP3). GPR120 activation can also trigger intracellular signaling via recruitment of β-Arrestin. In the present method, agonist-induced activation of the human GPR120 receptor is monitored through the use of PathHunter CHO-K1 GPR120 β-Arrestin Cell Line engineered by DiscoveRx, as detailed below. The cell lines are designed to co-express both the ProLink/Enzyme Donor (PK)-tagged GPCR and the Enzyme […] (EA)-tagged Beta-Arrestin fusion proteins. Upon GPR120 receptor stimulation/activation, the EA-tagged β-Arrestin portion is translocated to the tagged receptor, where the two enzyme fragments are brought within close proximity. Under these conditions, these fragments can interact and form an active Beta-gal enzyme complex through Enzyme Fragment Complementation (EFC). This active Beta-gal complex can enzymatically hydrolyse the substrate to produce a detectable light signal; therefore, activation as a function of agonist concentration can be expressed as an EC50 value to determine relative compound activities. This in vitro assay therefore serves to assess compound agonist activity of the GPR120.
In Procedure β-arrestin B the cells used were PathHunter CHO-K1 GPR120S β-Arrestin Cell Line, expressing the short form of the GPR120 receptor (Accession #NM_181745), with 5000 cells/well.
The selected CHO-K1 GPR120 β-Arrestin cells were cultured in Ham's F12 media supplemented with 10% fetal bovine serum (FBS), 1% Glutamine, 1×p/s, 800 μg/ml G418 and 300 μg/ml Hygromycin B (for selection). Cell stocks were maintained and grown in a sub-confluent state using standard cell culture procedures. The day before the experiment, the cells were harvested with non-enzymatic cell dissociation buffer and re-suspended in complete growth media at the desired concentration. A Corning 384-plate was then seeded with the proper number of cells in a volume of 25 μL, per well. The seeded plates were incubated overnight at 37° C.
On the day of the experiment, the Assay Buffer containing (a) HBSS with Ca^++ and Mg^++, (b) 20 mM HEPES, and (c) 0.1% BSA stabilizer (pH 7.4) was prepared. The growth medium was gently removed from the cell plates and 20 μL of Assay Buffer added to each well. The plate was then incubated at 37° C. for 60 mins. Test compounds were serially diluted in Assay Buffer to desired concentrations (more particularly, to one or more of the following μM concentrations: 25 μM, 12.5 μM, 6.25 μM, 3.125 μM, 1.562 μM, 0.781 μM, 0.391 μM, 0.195 μM, 0.098 μM, 0.049 μM, 0.024 μM, 0.012 μM). Five μl of compound dilution was then added to each well and the plate incubated at 37° C. for 90 mins. The detection reagents were prepared according to the manufacture's instruction. Twelve μL of the detection reagents were added to each well and the plate incubated at room temperature for 60 mins.
The plates were read on an EnVision instrument, using Protocol name: Luminescence, Plate type: 384 Costar, Measurement height: 3 mm, Measurement time: 1 s, Aperture: 384 Plate aperture. The % activity relative to the positive control was calculated using the following equation:
The % Activity values were plotted versus the concentration of test compound and fitted to a sigmoidal dose-response curve with a Hill slope=1 (fixed value) using nonlinear regression with GraphPad Prism 5.0 to calculate the EC50 values. The Fitting Equation was: Y=Bottom+(Top−Bottom)/(1+10^((LogEC50−X)*HillSlope)), where X is the log of the concentration and Y is the response.

| Structure (SMILES) | EC50 (Human GPR120 short form) [nM] | EC50 [1] [nM] |
| --- | --- | --- |
| Cc1ccc(-n2ccc(C(F)(F)F)c2COc2c(F)cc(CCC(=O)O)cc2F)cc1F [Compound 62, 3-(3,5-difluoro-4-[[1-(3-fluoro-4-methylphenyl)-3-(trifluoromethyl)-1H-pyrrol-2-yl]methoxy]phenyl)propanoic acid] | 262 | 96 |
| Cc1ccc(-n2ccc(C(F)(F)F)c2COc2c(F)cc(CC(C)C(=O)O)cc2F)cc1F (centres unmarked) [Compound 64, 3-(3,5-difluoro-4-[[1-(3-fluoro-4-methylphenyl)-3-(trifluoromethyl)-1H-pyrrol-2-yl]methoxy]phenyl)-2-methylpropanoic acid] | 212 | 264 |
| CC(Cc1cc(F)c(OCc2c(C(F)(F)F)ccn2-c2ccc(F)cc2)c(F)c1)C(=O)O (centres unmarked) [Compound 65, 3-(3,5-difluoro-4-[[1-(4-fluorophenyl)-3-(trifluoromethyl)-1H-pyrrol-2-yl]methoxy]phenyl)-2-methylpropanoic acid] | 547 | 809 |
| Cc1ccc(-n2ccc(C(F)(F)F)c2COc2ccc(CCC(=O)O)c(C)c2C)cc1F [Compound 66, 3-(4-{[1-(3-Fluoro-4-methylphenyl)-3-(trifluoromethyl)-1H-pyrrol-2-yl]methoxy}-2,3-dimethylphenyl)propanoic acid] | 315 | 412 |
| O=C(O)CCc1cc(F)c(OCc2c(C(F)(F)F)ccn2-c2ccc(Cl)c(F)c2)c(F)c1 [Compound 67, 3-(4-[[1-(4-chloro-3-fluorophenyl)-3-(trifluoromethyl)-1H-pyrrol-2-yl]methoxy]-3,5-difluorophenyl)propanoic acid] | 368 | 206 |
| Cc1c(CCC(=O)O)ccc(OCc2c(C(F)(F)F)ccn2-c2ccc(Cl)c(F)c2)c1C [Compound 68, 3-(4-{[1-(4-Chloro-3-fluorophenyl)-3-(trifluoromethyl)-1H-pyrrol-2-yl]methoxy}-2,3-dimethylphenyl)propanoic acid] | 357 | 311 |
| CC(Cc1cc(F)c(OCc2c(C(F)(F)F)ccn2-c2ccc(Cl)c(F)c2)c(F)c1)C(=O)O (centres unmarked) [Compound 69, 3-(4-[[1-(4-chloro-3-fluorophenyl)-3-(trifluoromethyl)-1H-pyrrol-2-yl]methoxy]-3,5-difluorophenyl)-2-methylpropanoic acid] | 488 | 630 |
| O=C(O)CCc1cc(F)c(OCc2c(C(F)(F)F)ccn2-c2ccc(Cl)cc2)c(F)c1 [Compound 70, 3-(4-((1-(4-chlorophenyl)-3-(trifluoromethyl)-1H-pyrrol-2-yl)methoxy)-3,5-difluorophenyl)propanoic acid] | 80 | 69 |
| O=C(O)CCc1cc(F)c(OCc2c(C(F)(F)F)ccn2-c2ccc(Cl)cc2F)c(F)c1 [Compound 71, 3-(4-{[1-(4-Chloro-2-fluorophenyl)-3-(trifluoromethyl)-1H-pyrrol-2-yl]methoxy}-3,5-difluorophenyl)propanoic acid] | 179 | 624 |
| Cc1ccc(-n2ccc(C(F)(F)F)c2COc2c(F)cc(CCC(=O)O)cc2F)c(F)c1 [Compound 72, 3-(3,5-Difluoro-4-{[1-(2-fluoro-4-methylphenyl)-3-(trifluoromethyl)-1H-pyrrol-2-yl]methoxy}phenyl)propanoic acid] | 118 | 624 |
| Cc1ccc(-n2ccc(C(F)(F)F)c2COc2ccc(CCC(=O)O)c(C)c2C)c(F)c1 [Compound 73, 3-(4-{[1-(2-Fluoro-4-methylphenyl)-3-(trifluoromethyl)-1H-pyrrol-2-yl]methoxy}-2,3-dimethylphenyl)propanoic acid] | 210 | 749 |
| Cc1c(CCC(=O)O)ccc(OCc2c(C(F)(F)F)ccn2-c2ccc(Cl)cc2F)c1C [Compound 74, 3-(4-{[1-(4-Chloro-2-fluorophenyl)-3-(trifluoromethyl)-1H-pyrrol-2-yl]methoxy}-2,3-dimethylphenyl)propanoic acid] | 167 | 797 |
| O=C(O)CCc1cc(F)c(OCc2c(C(F)(F)F)ccn2-c2ccc(F)cc2F)c(F)c1 [Compound 75, 3-(4-{[1-(2,4-Difluorophenyl)-3-(trifluoromethyl)-1H-pyrrol-2-yl]methoxy}-3,5-difluorophenyl)propanoic acid] | 156 | 577 |
| O=C(O)CCc1cc(F)c(OCc2c(C(F)(F)F)ccn2-c2ccc(F)c(F)c2)c(F)c1 [Compound 76, 3-(4-{[1-(3,4-Difluorophenyl)-3-(trifluoromethyl)-1H-pyrrol-2-yl]methoxy}-3,5-difluorophenyl)propanoic acid] | 175 | 1120 |
| Cc1c(CCC(=O)O)ccc(OCc2c(C(F)(F)F)ccn2-c2ccc(F)cc2F)c1C [Compound 77, 3-(4-{[1-(2,4-Difluorophenyl)-3-(trifluoromethyl)-1H-pyrrol-2-yl]methoxy}-2,3-dimethylphenyl)propanoic acid] | 266 | 1060 |
| Cc1c(CCC(=O)O)ccc(OCc2c(C(F)(F)F)ccn2-c2ccc(F)c(F)c2)c1C [Compound 78, 3-(4-{[1-(3,4-Difluorophenyl)-3-(trifluoromethyl)-1H-pyrrol-2-yl]methoxy}-2,3-dimethylphenyl)propanoic acid] | 305 | 1420 |
